Results taken from article PMC8722130 (Progress in biophysics and molecular biology, 2021).
Blank lines part the entries; values can stand above or below the molecule they belong to.

Legend:
[1] = molecular target: uracil DNA-glycosylase (UDG) (Homo sapiens, UniProt P13051); test: co-crystal structure; assay type: binding
[2] = molecular target: human UDG (mitochondrial, 6xHis; XTAL Biostructures) (Homo sapiens, UniProt P13051-2 82-304); test: thermal shift
Sequence of human UDG (mitochondrial, 6xHis; XTAL Biostructures) (P13051 91-313): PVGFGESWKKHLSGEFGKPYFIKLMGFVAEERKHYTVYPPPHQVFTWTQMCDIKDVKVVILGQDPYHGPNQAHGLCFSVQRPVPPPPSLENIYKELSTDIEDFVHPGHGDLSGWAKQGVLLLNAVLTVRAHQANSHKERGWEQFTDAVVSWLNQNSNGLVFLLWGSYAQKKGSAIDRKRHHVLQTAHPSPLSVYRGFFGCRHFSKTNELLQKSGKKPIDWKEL

Sequence of uracil DNA-glycosylase (UDG) (P13051 whole entry): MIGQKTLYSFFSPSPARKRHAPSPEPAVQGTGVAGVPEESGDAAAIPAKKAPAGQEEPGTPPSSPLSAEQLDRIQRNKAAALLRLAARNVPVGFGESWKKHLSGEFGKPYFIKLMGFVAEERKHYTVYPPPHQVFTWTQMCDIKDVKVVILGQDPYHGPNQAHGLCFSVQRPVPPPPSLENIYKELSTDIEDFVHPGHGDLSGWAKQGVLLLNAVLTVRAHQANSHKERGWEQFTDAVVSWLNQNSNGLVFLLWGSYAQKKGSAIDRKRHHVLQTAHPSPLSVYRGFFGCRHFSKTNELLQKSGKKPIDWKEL

Kd [1]: < 700 nM
Molecule: O=C(O)C1=CC(=C(c2ccc(O)c(C(=O)O)c2)c2ccc(O)c(C(=O)O)c2)C=CC1=O [aurintricarboxylic acid]

B1: uracil DNA hairpin (structured_DNA)
DNA: GCACUUAAGAAUUGCAAUUCUUAAGUGC
modifications: U in place of T (deoxyuridine, nine U:A pairs stated)
binding result [2]: binds
